Tests used:
[1] = system: prostate specific antigen (PSA); test: DHT-stimulated prostate specific antigen (PSA) expression in LNCaP cells; type: cell-based
LNCaP cells [2] = test: growth and proliferation of LNCaP cells stimulated by fetal calf serum (FCS); type: cell-based
cytochrome-C = test: mitochondrial cytochrome C release; type: cell-based; settings: FIG. 8
LNCaP cells [3] = test: growth and proliferation of LNCaP cells stimulated by dihydrotestosterone (DHT); type: cell-based
Method: Tetrandrine inhibits the growth and proliferation of prostate cancer cells in a dose- and time-dependent manner. For example, the growth and proliferation of LNCaP cells stimulated by dihydrotestosterone (DHT) and fetal calf serum (FCS) can be stopped or inhibited and, at higher concentrations or at longer exposure times, the cells are killed. Preferably, the concentration of tetrandrine used is between about 10 μM and about 60 μM. […] The cells take on an atrophied appearance after contact with tetrandrine.

prostate cancer cells [4] = test: morphology of cellular organelles of prostate cancer cells; type: cell-based; settings: about 10 μM and 20 μM tetrandrine
Caspase-7 = Caspase-7 activation; type: cell-based; settings: FIG. 6
[5] = system: PC3 prostate cancer cells; test: killing of hormone-independent PC3 prostate cancer cells; type: cell-based; settings: increasing concentrations, 96 hours of exposure; FIG. 4
Caspase-9 = Caspase-9 activation; type: cell-based; settings: FIG. 6
Caspase-8 = Caspase-8 activation; type: cell-based; settings: FIG. 6
prostate cancer cells [6] = test: cell cycle effect in prostate cancer cells; type: cell-based; settings: stated as apparent mechanism
From the text: (§1) The increasing apoptosis and necrosis in hormone-independent and hormone dependent prostate cancer cells after exposure to tetrandrine occurs in a dose- and time-dependent manner.

[7] = doses of from 100 mg/day to 300 mg/day, prior studies; cited from earlier work
LNCaP cells [8] = test: dose response of LNCaP growth and proliferation, optical density of stained live cells; type: cell-based
[9] = system: PC3 prostate cancer cells; test: clonogenic activity of PC3 prostate cancer cells; type: cell-based; settings: dose dependent, FIG. 5
PARP = PARP cleavage; type: cell-based; settings: FIG. 7
[10] = system: LNCaP prostate cancer cells; test: flow cytometry of apoptosis and necrosis in LNCaP cells; type: cell-based; settings: 24 hours or 48 hours exposure
From the text: as §1

calcium channel = settings: cited from earlier work
Caspase-3 = Caspase-3 activation; type: cell-based; settings: FIG. 6
Bcl-XL = Bcl-XL down-regulation in prostate cancer cells; type: cell-based; settings: FIG. 9

COc1ccc2cc1Oc1ccc(cc1)CC1c3cc(c(OC)cc3CCN1C)Oc1c(OC)c(OC)cc3c1C(C2)N(C)CC3 (centres unmarked) [tetrandrine, (1B)-6,6′,7,12-tetramethoxy-2,2′-dimethyl-berbaman]
DHT-stimulated PSA expression [1]: inhibits DHT-stimulated prostate specific antigen (PSA) expression in a dose-dependent manner | cell number and morphology of LNCaP cells growing under FCS (LNCaP cells [2]; 10 μM tetrandrine, FIG. 2A): decrease in cell number and the notable change in cell morphology | cell number and morphology of LNCaP cells growing under FCS (LNCaP cells [2]; 20 μM tetrandrine, FIG. 2A): the decrease in cell number and the change in cell morphology is even more apparent | growth and proliferation of LNCaP cells stimulated by FCS (LNCaP cells [2]; about 10 μM to about 60 μM tetrandrine, FIG. 1B): inhibition of the growth and proliferation | cell number and morphology of LNCaP cells growing under FCS (LNCaP cells [2]; concentration not given): sharp decrease in cell number and a significant change in cell morphology | cytoplasmic cytochrome-C (cytochrome-C): concentration-dependent increase | mitochondrial cytochrome-C (cytochrome-C): concentration-dependent decrease | cell number and morphology of LNCaP cells in presence of FCS and DHT (LNCaP cells [3]; about 10 μM to about 20 μM tetrandrine, FIG. 2B): decrease in cell number and atrophied appearance | growth and proliferation of LNCaP cells stimulated by DHT (LNCaP cells [3]; about 10 μM to about 60 μM tetrandrine, FIG. 1A): inhibition of the growth and proliferation | morphology of nuclei and cytoskeleton (prostate cancer cells [4]): nuclei of prostate cancer cells appear to shrink and round while the cytoskeleton is disrupted | Caspase-7 activation (Caspase-7): concentration-dependent increase | killing of hormone-independent PC3 cells [5]: dose-dependent killing | Caspase-9 activation (Caspase-9): concentration-dependent increase | Caspase-8 activation (Caspase-8): concentration-dependent increase | mechanism of decreased proliferation / increased apoptosis (cell cycle) (prostate cancer cells [6]): cell cycle arrest in G1 | toxicity [7]: minimal toxicity | death of LNCaP cells at longer exposure (LNCaP cells [8]; 48 hours and 72 hours versus 24 hours, each concentration): death of LNCaP cells is greater | growth of LNCaP cells, stained live cells (LNCaP cells [8]; about 5 μM tetrandrine, 24 hours): growth of LNCaP cells is inhibited | killing of LNCaP cells, stained live cells (LNCaP cells [8]; about 60 μM tetrandrine, 24 hours): almost all LNCAP cells are killed | clonogenic activity of PC3 cells [9]: inhibition of the clonogenic activity | clonogenic activity of PC3 cells ([9]; listed as Tetrandrine): inhibits the clonogenic activity | PARP cleavage (PARP): concentration-dependent increase | apoptosis and necrosis by flow cytometry [10]: increasing apoptosis and necrosis in a dose- and time-dependent manner | calcium channel blocker activity (calcium channel): minimal | Caspase-3 activation (Caspase-3): concentration-dependent increase | Bcl-XL level in prostate cancer cells (Bcl-XL): concentration-dependent down-regulation

From patent publication US20050245559A1, “Treatment and prevention of prostate cancer” (priority 2004, published 2005)
